According to patent US20200048267A1, “OGA INHIBITOR COMPOUNDS” (Janssen Pharmaceutica NV, priority 2017, published 2020):
Where a name gives a salt, the structure may show the parent alone.

Tests used:
[1] = target: T1, recombinant human Meningioma Expressed Antigen 5 (MGEA5), also referred to as O-GlcNAcase (OGA) (Homo sapiens, UniProt O60502); test: OGA biochemical assay (inhibition of FM-GlcNAc hydrolysis, fluorescence); conditions: for Emax: read-out: ENZYMATIC Emax (%); for IC50: read-out: ENZYMATIC hOGA, pIC50 (converted)
T1 construct: Full length OGA enzyme was purchased at OriGene (cat # TP322411); purchased OriGene TP322411
T1 sequence (O60502 1-916): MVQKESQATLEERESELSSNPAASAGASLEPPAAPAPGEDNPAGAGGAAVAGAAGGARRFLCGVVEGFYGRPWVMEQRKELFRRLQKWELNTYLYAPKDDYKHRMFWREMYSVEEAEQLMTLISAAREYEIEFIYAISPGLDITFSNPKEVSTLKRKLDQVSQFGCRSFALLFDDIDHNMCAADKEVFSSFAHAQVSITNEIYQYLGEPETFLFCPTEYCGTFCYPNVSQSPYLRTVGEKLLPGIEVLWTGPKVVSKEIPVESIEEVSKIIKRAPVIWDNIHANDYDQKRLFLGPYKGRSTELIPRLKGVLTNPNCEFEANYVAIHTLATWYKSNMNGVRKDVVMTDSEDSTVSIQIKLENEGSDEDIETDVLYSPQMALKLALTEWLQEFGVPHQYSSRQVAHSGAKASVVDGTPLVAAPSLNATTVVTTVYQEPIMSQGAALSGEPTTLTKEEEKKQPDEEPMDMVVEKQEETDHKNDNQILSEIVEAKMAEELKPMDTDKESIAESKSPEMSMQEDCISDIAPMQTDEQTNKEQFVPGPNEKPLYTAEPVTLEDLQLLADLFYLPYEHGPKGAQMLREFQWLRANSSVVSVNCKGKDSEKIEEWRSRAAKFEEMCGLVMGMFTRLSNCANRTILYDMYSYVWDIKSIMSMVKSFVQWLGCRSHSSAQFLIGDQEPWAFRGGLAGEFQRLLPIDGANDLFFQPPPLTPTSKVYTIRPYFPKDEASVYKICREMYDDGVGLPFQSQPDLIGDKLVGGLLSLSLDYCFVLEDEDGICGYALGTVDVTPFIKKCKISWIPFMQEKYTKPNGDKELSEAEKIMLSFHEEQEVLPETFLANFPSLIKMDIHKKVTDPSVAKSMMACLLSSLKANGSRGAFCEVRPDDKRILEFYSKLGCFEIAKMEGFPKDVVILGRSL
Excerpt: The assay is based on the inhibition of the hydrolysis of fluorescein mono-β-D-N-Acetyl-Glucosamine (FM-GlcNAc) (Mariappa et al. 2015, Biochem J 470:255) by the recombinant human Meningioma Expressed Antigen 5 (MGEA5), also referred to as O-GlcNAcase (OGA). The hydrolysis FM-GlcNAc (Marker Gene technologies, cat # M1485) results in the formation of B-D-N-glucosamineacetate and fluorescein. The fluorescence of the latter can be measured at excitation wavelength 485 nm and emission wavelength 538 nm. An increase in enzyme activity results in an increase in fluorescence signal. Full length OGA enzyme was purchased at OriGene (cat # TP322411). The enzyme was stored in 25 mM Tris.HCl, pH 7.3, 100 mM glycine, 10% glycerol at −20° C. Thiamet G and GlcNAcStatin were tested as reference compounds (Yuzwa et al. 2008 Nature Chemical Biology 4:483; Yuzwa et al. 2012 Nature Chemical Biology 8:393). The assay was performed in 200 mM Citrate/phosphate buffer supplemented with 0.005% Tween-20. 35.6 g Na2HPO4 2 H2O (Sigma, # C0759) were dissolved in 1 L water to obtain a 200 mM solution. 19.2 g citric acid (Merck, # 1.06580) was dissolved in 1 L water to obtain a 100 mM solution. pH of the sodium phosphate solution was adjusted with the citric acid solution to 7.2. The buffer to stop the reaction consists of a 500 mM Carbonate buffer, pH 11.0. 734 mg FM-GlcNAc were dissolved in 5.48 mL DMSO to obtain a 250 mM solution and was stored at −20° C. OGA was used at 2 nM concentration and FM-GlcNAc at a 100 uM final concentration. Dilutions were prepared in assay buffer.
50 nl of a compound dissolved in DMSO was dispensed on Black Proxiplate™ 384 Plus Assay plates (Perkin Elmer, #6008269) and 3 μl fl-OGA enzyme mix added subsequently. Plates were pre-incubated for 60 min at room temperature and then 2 μl FM-GlcNAc substrate mix added. […] Plates were briefly centrifuged for 1 min at 1000rpm and incubate at room temperature for 6 h. To stop the reaction 5 μl STOP buffer were added and plates centrifuge again 1 min at 1000 rpm.
Fluorescence was quantified in the Thermo Scientific Fluoroskan Ascent or the PerkinElmer EnVision with excitation wavelength 485 nm and emission wavelength 538 nm.
For analysis a best-fit curve is fitted by a minimum sum of squares method. From this an IC50 value and Hill coefficient was obtained. High control (no inhibitor) and low control (saturating concentrations of standard inhibitor) were used to define the minimum and maximum values.

OGA = target: T2, OGA (Homo sapiens, UniProt O60502); test: OGA cellular assay (ICC detection of O-GlcNAcylated proteins in HEK293 cells inducible for P301L mutant human Tau); type: cell-based; conditions: 6 hours incubation; for EC50: read-out: CELLULAR hOGA, pEC50 (converted)
T2 construct: HEK293 cells inducible for P301L mutant human Tau (isoform 2N4R) were established at Janssen; endogenous in cells; host or cells: HEK293 cells inducible for P301L mutant human Tau (2N4R)
T2 sequence (O60502 1-916): T1 sequence (O60502 1-916)
Experimental: HEK293 cells inducible for P301L mutant human Tau (isoform 2N4R) were established at Janssen. Thiamet-G was used for both plate validation (high control) and as reference compound (reference EC50 assay validation). OGA inhibition is evaluated through the immunocytochemical (ICC) detection of O-GlcNAcylated proteins by the use of a monoclonal antibody (CTD110.6; Cell Signaling, #9875) detecting O-GlcNAcylated residues as previously described (Dorfmueller et al. 2010 Chemistry & biology, 17:1250). Inhibition of OGA will result in an increase of O-GlcNAcylated protein levels resulting in an increased signal in the experiment. Cell nuclei are stained with Hoechst to give a cell culture quality control and a rough estimate of immediate compounds toxicity, if any. ICC pictures are imaged with a Perkin Elmer Opera Phenix plate microscope and quantified with the provided software Perkin Elmer Harmony 4.1.
Cells were propagated in DMEM high Glucose (Sigma, #D5796) following standard procedures. 2 days before the cell assay cells are split, counted and seeded in Poly-D-Lysine (PDL) coated 96-wells (Greiner, #655946) plate at a cell density of 12,000 cells per cm^2 (4,000 cells per well) in 100 µl of Assay Medium (Low Glucose medium is used to reduce basal levels of GlcNAcylation) (Park et al. 2014 The Journal of biological chemistry 289:13519). At the day of compound test medium from assay plates was removed and replenished with 90 μl of fresh Assay Medium. 10 μl of compounds at a 10 fold final concentration were added to the wells. Plates were centrifuged shortly before incubation in the cell incubator for 6 hours. DMSO concentration was set to 0.2%. Medium is discarded by applying vacuum. For staining of cells medium was removed and cells washed once with 100 μl D-PBS (Sigma, #D8537). From next step onwards unless other stated assay volume was always 50 μl and incubation was performed without agitation and at room temperature. Cells were fixed in 50 μl of a 4% paraformaldehyde (PFA, Alpha aesar, # 043368) PBS solution for 15 minutes at room temperature. […] Before analysis samples were washed 2 times manually for 5 minutes in ICC base buffer.
Imaging is performed using Perkin Elmer Phenix Opera using a water 20× objective and recording 9 fields per well. Intensity readout at 488 nm is used as a measure of O-GlcNAcylation level of total proteins in wells. To assess potential toxicity of compounds nuclei were counted using the Hoechst staining. IC50-values are calculated using parametric non-linear regression model fitting. As a maximum inhibition Thiamet G at a 200 uM concentration is present on each plate. In addition, a concentration response of Thiamet G is calculated on each plate.

Row | Compound | melting point | Emax [1] | IC50 [1] | Emax (OGA) | EC50 (OGA) | ENZYMATIC hOGA; pIC50 [1]
1 | Cc1cc(N2CCC3(CCN(Cc4ccc5sc(C)nc5c4)C3)C2)nc(C)n1 (centres unmarked) (as salt: HCl) [Product 32] | 214.8 °C |  |  |  |  | 
2 | Cc1cc(N2CCC3(CCN(C(C)c4ccc5nccnc5c4)C3)C2)nc(C)n1.Cl (centres unmarked) [Product 20] | 173.1 °C | 97.6% | 117 nM | 14.9% | > 1000 µM | 
3 | CC(=O)Nc1ncc(CN2CCC3(C2)CN(c2cc(C)nc(C)c2)C3)s1 [Product 23] | 212.2 °C | 100% | 302 nM |  |  | 
4 | Cc1cc(N2CCC3(CCN(C(C)c4ccc5scnc5c4)C3)C2)nc(C)n1.Cl (centres unmarked) [Product 24] | 218.2 °C | 99.3% | 49 nM | 38% | > 1 µM | 
5 | CC(=O)Nc1ncc(CN2CC3(CCN(c4cc(C)nc(C)c4)C3)C2)s1 [Product 25] | 214.1 °C | 57.9% | 8710 nM |  |  | 
6 | Cc1cc(N2CCC3(CCN(C(C)c4cc5ccccc5n4C)C3)C2)nc(C)n1.Cl (centres unmarked) [Product 27] | 166.4 °C | 79.4% |  |  |  | 5.58
7 | Cc1cc(N2CCC3(CCN(C(C)c4ccc5sc(C)nc5c4)C3)C2)nc(C)n1 (centres unmarked) [Product 31] | 230 °C | 102% | 33.9 nM | 23.7% | > 1 µM | 
8 | COc1cc(C)cc(N2CCC3(CCN(Cc4cnc(NC(C)=O)s4)C3)C2)n1 (centres unmarked) [Product 66] |  | 99.7% | 69.2 nM | 38.5% | > 1 µM | 
9 | COc1cncc(N2CCC3(CCN(Cc4cnc(NC(C)=O)s4)C3)C2)c1 (centres unmarked) [Product 67] |  | 99.4% | 34.7 nM | 45.6% | 0.537 µM | 
10 | CC(=O)Nc1ncc(CN2CCC3(CCN(c4cncc(C)c4)C3)C2)s1 (centres unmarked) [Product 68] |  | 103% | 10.2 nM | 92.9% | 0.138 µM | 
11 | CC(=O)Nc1ncc(CN2CCC3(CCN(c4cncc(C(F)(F)F)c4)C3)C2)s1 (centres unmarked) [Product 69] |  | 99.1% | 49 nM | 57.6% | 0.676 µM | 
